Where two headings read alike, the source gives them in different places.
Legend:
[1] = biological target: T1, hBRR2 (spliceosomal RNA helicase BRR2) (Homo sapiens, UniProt O75643); assay: crystal soaking, X-ray structure ([…] Å); also U4/U6 unwinding inhibition; type: biochemical; set-up: gene SNRNP200; hBRR2T1 (residues 395-2129), N-terminal His tag not cleaved, baculovirus/High Five insect cells; isolated, without hJab1deltaC, in U4*/U6 unwinding assay
[2] = biological target: T1, hBRR2 (spliceosomal RNA helicase BRR2); assay: as above; type: biochemical; set-up: gene SNRNP200; hBRR2T1 (residues 395-2129), N-terminal His tag not cleaved, baculovirus/High Five insect cells; isolated, without hJab1deltaC, in U4*/U6 unwinding assay; remark: listed apart in the source
[3] = biological target: T1, hBRR2 (spliceosomal RNA helicase BRR2); assay: co-crystal structure (X-ray, […] Å); type: binding; set-up: gene SNRNP200; hBRR2T1, residues 395-2129

T1 sequence (O75643 395-2129): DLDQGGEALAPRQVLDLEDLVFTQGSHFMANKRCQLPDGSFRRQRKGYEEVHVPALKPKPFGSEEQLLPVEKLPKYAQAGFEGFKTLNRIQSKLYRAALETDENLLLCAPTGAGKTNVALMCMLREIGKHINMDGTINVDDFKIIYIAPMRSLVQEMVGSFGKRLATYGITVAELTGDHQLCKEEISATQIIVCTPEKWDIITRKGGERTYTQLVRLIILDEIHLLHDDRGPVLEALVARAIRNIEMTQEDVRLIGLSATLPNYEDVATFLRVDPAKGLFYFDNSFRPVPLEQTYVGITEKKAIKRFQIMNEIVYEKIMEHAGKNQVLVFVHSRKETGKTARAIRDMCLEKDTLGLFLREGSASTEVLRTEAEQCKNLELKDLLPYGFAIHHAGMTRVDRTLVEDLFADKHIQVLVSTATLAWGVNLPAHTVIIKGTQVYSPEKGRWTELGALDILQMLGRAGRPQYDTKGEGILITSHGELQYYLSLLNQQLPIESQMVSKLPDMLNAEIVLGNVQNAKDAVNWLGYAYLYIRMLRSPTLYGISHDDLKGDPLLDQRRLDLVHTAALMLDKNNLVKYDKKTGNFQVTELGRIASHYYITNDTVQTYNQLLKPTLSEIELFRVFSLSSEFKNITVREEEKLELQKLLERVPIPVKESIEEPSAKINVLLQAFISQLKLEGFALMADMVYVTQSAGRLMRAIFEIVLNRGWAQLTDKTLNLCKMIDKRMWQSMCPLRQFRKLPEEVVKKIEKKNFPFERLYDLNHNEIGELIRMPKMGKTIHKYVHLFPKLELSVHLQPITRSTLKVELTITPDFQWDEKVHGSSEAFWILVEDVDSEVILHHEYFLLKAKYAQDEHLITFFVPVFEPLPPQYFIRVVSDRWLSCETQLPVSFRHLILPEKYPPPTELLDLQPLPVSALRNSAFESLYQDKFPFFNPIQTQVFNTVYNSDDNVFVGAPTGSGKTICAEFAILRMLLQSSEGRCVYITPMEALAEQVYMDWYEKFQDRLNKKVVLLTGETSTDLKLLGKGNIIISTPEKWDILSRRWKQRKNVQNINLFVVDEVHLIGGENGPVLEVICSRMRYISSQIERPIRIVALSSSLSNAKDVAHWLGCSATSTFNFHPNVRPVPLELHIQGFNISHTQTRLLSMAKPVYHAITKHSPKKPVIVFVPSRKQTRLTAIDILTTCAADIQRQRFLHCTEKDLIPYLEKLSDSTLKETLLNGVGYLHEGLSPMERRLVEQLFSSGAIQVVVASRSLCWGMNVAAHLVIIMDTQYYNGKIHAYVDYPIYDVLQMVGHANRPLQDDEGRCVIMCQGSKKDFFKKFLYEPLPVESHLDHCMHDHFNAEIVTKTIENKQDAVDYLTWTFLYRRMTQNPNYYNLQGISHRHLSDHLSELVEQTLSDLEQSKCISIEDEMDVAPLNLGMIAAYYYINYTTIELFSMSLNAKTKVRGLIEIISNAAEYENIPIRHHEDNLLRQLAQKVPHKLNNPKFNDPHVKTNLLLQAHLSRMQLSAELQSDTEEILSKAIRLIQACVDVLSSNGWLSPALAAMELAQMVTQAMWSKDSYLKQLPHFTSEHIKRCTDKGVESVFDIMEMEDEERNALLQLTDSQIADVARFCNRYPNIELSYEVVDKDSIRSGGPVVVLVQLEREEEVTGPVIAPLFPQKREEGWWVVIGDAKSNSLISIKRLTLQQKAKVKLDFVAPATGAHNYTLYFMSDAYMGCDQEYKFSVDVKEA

SMILES: O=S(=O)(N=C(S)S)c1ccccc1 [compound 50]
- IC50 [1]: > 1000 µM

SMILES: O=S(=O)(NO)c1ccccc1 [compound 24, Piloty's acid]
- IC50 [2]: > 90 µM

SMILES: [H]/N=C(/N)NS(=O)(=O)c1ccc(N)cc1 [SG, 4-amino-N-(aminoiminomethyl)benzolsulfonamide]
- co-crystal structure (X-ray, 2.87 Å) [3]: In this hBRR2^T1 crystal structure, sulfaguanidine is positioned at the interface between the two helicase cassettes
